# US8519007B2, “Use certain diterpene compounds in the treatment of androgen receptor-associated diseases” (Academia Sinica, priority 2008, dated 2013)
# How the values were obtained:
# [1] = test system: 22Rv1 tumors; test: 22Rv1 xenograft in athymic nude mice, oral HDHS; type: in vivo
# Method: 22Rv1 cells were derived from a castration-relapsed tumor of human PCa origin that represents a clinical limitation for hormonal therapy (Nagabhushan M, et al., Cancer Res 1996;56:3042-6; Sramkoski R M, et al., In Vitro Cell Dev Biol Anim 1999; 35:403-9). The potential of HDHS to inhibit growth of PCa in vivo was tested in athymic nude mice with 22Rv1 tumors. […]. All animal work was done in accordance with the protocol approved by the Institutional Animal Care and Use Committee, Academia Sinica. Aliquots of 1×10^6 22Rv1 cells were suspended in 1:1 PBS mixed with Matrigel (BD Biosciences, San Jose, Calif.) and were subcutaneously inoculated into the right flank of each mouse. Once the tumor grew to palpable size one week after 22Rv1 cells were implanted, mice were stochastically assigned to three groups (n=7) that received vehicle control or HDHS at different dosages (0.5 and 2.5 mg/kg/day), by gavage in 0.2 mL of PBS containing 10% DMSO. Tumors were measured twice per week using calipers and their volumes calculated using a standard formula, as follows: width2×length×0.5. Body weight was measured weekly. Mice received 24 doses, and 24 h after the last dose they were sacrificed to harvest plasma and tumors. A portion of each tumor was snap-frozen in liquid nitrogen and stored at −80° C. until needed for western blot analysis of relevant biomarkers, and the remainder was fixed in 10% formalin overnight.
# Immunohistochemistry was conducted to examine the in vivo effects of HDHS on proliferation and apoptosis in tumor xenografts. The paraffin-embedded tumor sections (4 μm thickness) were heat immobilized, deparaffinized using xylene and rehydrated in a graded series of ethanol with a final wash in distilled water. Antigen retrieval was done in TARGET RETRIEVAL SOLUTION (DakoCytomation, Glostrup, Denmark) in a DECLOAKING CHAMBER (Biocare Medical, Concord, Calif.) followed by quenching of endogenous peroxidase activity. Sections were then incubated with specific primary antibodies, including mouse monoclonal anti-Ki-67 (DakoCytomation) and rabbit polyclonal anti-AR (Santa Cruz) at 4° C. overnight in a humidity chamber. An ENVISION system (DakoCytomation) was used to detect the reaction products. In situ detection of apoptotic cells was carried out using terminal deoxynucleotidyl transferase-mediated nick-end labeling (TUNEL assay) reaction mixture according to the manufacturer's protocol (Chemicon).
# [2] = test system: 22Rv1 cells; test: Colony-forming growth assay; type: cell-based; conditions: Homo sapiens, 288 h; 22Rv1, 12 days; read-out: IC50 (anti-proliferation potency), colony growth
# Method: FIGS. 3A-C. HDHS affects growth of PCa cells. A, Cell viability of different cell lines treated with vehicle (Ctrl) or indicated concentrations of HDHS for 48 h. The absorbance of the control group was defined as 100%. B, Colony-forming growth of LNCaP and 22Rv1 cells (AR-dependent PCa cells) and PC-3 cells (AR-independent PCa cells) in 24-well multi-dishes with indicated treatments for 12 days. The results were presented as percentage of growth with respect to control treatment of the same cell line. C, Photographs of different PCa cell lines growing on culture plates with designated treatments for […].
# The long-term effect of HDHS on the malignant growth of AR-dependent (22Rv1, and LNCaP) and AR-independent (PC-3) PCa cells was examined by colony-forming growth assay. […] The differential effect was also reflected in the morphology of treated cells.
# [3] = target: T1, AR (Homo sapiens, UniProt P10275, T878A); test: AR nuclear translocation by confocal immunofluorescence in LNCaP cells; type: cell-based; conditions: steroid-deprived, 5 to 10 μM, 1 h
# T1 construct: endogenous in cells; host or cells: LNCaP
# T1 sequence (P10275 1-920 T878A): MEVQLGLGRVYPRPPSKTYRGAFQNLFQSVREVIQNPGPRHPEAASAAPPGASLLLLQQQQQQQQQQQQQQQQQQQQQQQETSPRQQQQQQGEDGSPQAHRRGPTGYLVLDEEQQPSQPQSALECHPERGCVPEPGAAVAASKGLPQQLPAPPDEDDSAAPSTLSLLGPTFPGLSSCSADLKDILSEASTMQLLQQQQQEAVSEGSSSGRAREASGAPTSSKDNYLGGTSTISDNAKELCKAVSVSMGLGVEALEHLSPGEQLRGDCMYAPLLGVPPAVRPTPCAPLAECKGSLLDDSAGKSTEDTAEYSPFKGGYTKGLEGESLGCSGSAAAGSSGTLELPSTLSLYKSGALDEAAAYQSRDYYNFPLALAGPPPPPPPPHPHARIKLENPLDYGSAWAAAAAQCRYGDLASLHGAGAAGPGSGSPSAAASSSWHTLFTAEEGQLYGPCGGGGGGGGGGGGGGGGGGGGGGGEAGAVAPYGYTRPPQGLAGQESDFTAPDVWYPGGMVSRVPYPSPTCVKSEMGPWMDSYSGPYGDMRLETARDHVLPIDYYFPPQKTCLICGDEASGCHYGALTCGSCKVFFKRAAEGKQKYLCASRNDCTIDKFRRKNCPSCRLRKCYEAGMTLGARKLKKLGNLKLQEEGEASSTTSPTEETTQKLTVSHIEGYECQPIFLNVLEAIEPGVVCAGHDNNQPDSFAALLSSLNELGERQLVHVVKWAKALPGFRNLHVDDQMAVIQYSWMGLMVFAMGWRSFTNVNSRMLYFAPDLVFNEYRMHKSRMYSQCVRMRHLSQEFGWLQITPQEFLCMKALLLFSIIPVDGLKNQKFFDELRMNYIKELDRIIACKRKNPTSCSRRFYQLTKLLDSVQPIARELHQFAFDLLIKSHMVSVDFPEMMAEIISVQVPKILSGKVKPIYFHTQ
# Method: Specifically, LNCaP cells were grown in medium containing 5% charcoal-dextran stripped FBS on 12-mm coverslips for 48 h and then treated with vehicle or various compound treatments for another 1 h. Cells were fixed with 4% (v/v) paraformaldehyde on ice for 15 min, permeabilized with 0.2% (v/v) Triton X-100/PBS, and then washed with PBS three times. […] The samples were washed again and mounted in mounting medium (Vector, Burlingame, Calif.). The cellular location of AR was visualized by confocal microscopy (LSM 510 META, Carl Zeiss GmbH, Jena, Germany) and analyzed using the manufacturer's software.
# [4] = test system: NIH-3T3 cells; test: MTT cell viability; type: cell-based; conditions: NIH-3T3, concentrations above 10 μM, 48 h, versus LNCaP and 22Rv1
# Method: The effects of HDHS on cell viability in various PCa cell lines including androgen-dependent LNCaP, androgen-responsive 22Rv1 cells, and androgen-independent PC-3 cells were tested and compared with untransformed fibroblast NIH-3T3 cells. PCa or NIH-3T3 cells (1×10^4 cells) were seeded into 96-well microtiter plates with 10% FBS culture medium. After 24 h, cells were incubated in 10% FBS medium containing different concentrations of HDHS or equivalent amounts of vehicle alone as control for 48 h. Cell viability was then determined by MTT assay, which quantitatively measures the metabolic activity of living cells.
# [5] = 0.5 and 2.5 mg/kg/day oral, 24 days
structure (smiles),measurement,setting,value
"CC(C)c1cc2c(cc1O)[C@@]1(C)CCCC(C)(C)C1=C(O)C2=O [Compound 2, 6,12-dihydroxyabieta-5,8,11,13-tetraen-7-one]",Ki-67 positive proliferative tumor cells,[1]; [5],decreased the number of cells positively stained for Ki-67
same,TUNEL positive apoptotic tumor cells,[1]; [5],increase of apoptotic tumor cells
same,AR expression in tumor cells (immunohistochemistry),[1]; HDHS-treated 22Rv1 tumors,prevalent decrease of AR expression
same,tumor growth of 22Rv1 xenograft,"[1]; nude mice, 0.5 and 2.5 mg/kg/day by gavage, 24 doses",significantly retarded tumor growth
same,"symptoms of toxicity (loss of appetite, decreased locomotion, signs of illness)","[1]; nude mice, 24-day regimen, oral",did not exhibit any symptoms of toxicity
same,body weight of tested mice,"[1]; up to 2.5 mg/kg per day, oral",not influenced
same,IC50,[2],6.3 µM
same,AR nuclear localization,[3],significant AR accumulation in the nucleus
same,cell viability (MTT),[4],far less pronounced
